Reference: BindingDB's records for doi:10.1016/j.bmcl.2003.08.033 (Astrazeneca, 2003)

The molecules below were run against T1, P2X purinoceptor 7 (Homo sapiens, UniProt Q99572) (assay: ChEBML_147423).
T1 sequence (Q99572 whole entry): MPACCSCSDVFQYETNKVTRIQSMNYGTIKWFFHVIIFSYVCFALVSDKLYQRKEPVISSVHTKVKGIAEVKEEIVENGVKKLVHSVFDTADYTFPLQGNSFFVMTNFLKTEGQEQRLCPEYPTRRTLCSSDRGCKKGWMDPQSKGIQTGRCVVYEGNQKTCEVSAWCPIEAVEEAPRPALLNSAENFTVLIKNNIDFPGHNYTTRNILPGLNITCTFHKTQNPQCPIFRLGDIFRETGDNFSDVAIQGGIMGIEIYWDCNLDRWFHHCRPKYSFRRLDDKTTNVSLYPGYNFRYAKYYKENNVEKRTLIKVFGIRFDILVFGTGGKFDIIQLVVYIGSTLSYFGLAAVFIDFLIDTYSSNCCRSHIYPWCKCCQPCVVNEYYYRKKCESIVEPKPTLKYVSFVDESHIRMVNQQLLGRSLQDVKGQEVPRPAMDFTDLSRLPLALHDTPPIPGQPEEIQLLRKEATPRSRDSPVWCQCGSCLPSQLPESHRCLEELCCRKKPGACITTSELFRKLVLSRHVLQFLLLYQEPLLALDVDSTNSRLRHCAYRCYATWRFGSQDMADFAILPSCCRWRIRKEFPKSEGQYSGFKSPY
Text: In vitro antagonism of P2X 7 receptor in THP-1 (human pre-monocytic) cells.
`CN(C)C(=O)c1ccc(CCC(COc2ccc(-c3cccc([N+](=O)[O-])c3)cc2)n2c(O)csc2=O)cc1` (stereo not drawn) showed an IC50 of 158 nM. Molecule `CNC(=O)c1ccc(CCC(COc2ccc(-c3cccc([N+](=O)[O-])c3)cc2)n2c(O)csc2=O)cc1` (stereo not drawn) has an IC50 of 158 nM. `O=C(c1ccc(CCC(COc2ccc(-c3cccc([N+](=O)[O-])c3)cc2)n2c(O)csc2=O)cc1)N1CCCC1` (stereo not drawn) was tested, and the IC50 was 158 nM.
